Experimental data reported in patent US9598424B2 (Takeda Pharmaceutical Company Limited, priority 2014, dated 2017).

Columns and labels:
[1] = target: T1, TBK1 (Homo sapiens, UniProt Q9UHD2); assay: Inhibition of TBK1 in Cells (TLR3 driven ISRE β-lactamase reporter assay); format: cell-based; details: poly IC-LMW stimulation 16 hrs; -log(EC50), EC50 molar; read-out: Inhibition of TBK1 in cells pEC50 (EC) (converted)
T1 construct: host or cells: RA1-ISRE beta-lactamase reporter cells
T1 sequence (Q9UHD2 1-729): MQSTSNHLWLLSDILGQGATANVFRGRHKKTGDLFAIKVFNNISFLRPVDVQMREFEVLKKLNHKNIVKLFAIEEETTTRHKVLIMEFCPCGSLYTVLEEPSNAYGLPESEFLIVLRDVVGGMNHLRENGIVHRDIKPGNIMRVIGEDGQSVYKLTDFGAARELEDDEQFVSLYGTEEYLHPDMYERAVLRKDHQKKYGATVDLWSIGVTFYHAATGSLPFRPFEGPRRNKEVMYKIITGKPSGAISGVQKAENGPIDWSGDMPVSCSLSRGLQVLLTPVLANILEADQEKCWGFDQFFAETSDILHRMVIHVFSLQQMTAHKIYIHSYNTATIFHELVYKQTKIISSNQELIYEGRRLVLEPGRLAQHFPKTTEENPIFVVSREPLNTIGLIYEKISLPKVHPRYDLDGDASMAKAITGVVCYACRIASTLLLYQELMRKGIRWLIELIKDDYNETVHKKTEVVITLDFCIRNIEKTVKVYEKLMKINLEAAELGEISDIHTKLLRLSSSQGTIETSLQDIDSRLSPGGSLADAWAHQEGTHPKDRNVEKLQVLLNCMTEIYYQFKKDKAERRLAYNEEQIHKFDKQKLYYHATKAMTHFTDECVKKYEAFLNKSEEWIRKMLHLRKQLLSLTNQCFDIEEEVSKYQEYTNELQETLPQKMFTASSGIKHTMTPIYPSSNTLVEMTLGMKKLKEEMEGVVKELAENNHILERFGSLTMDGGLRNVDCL
Outline: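 RA1-ISRE β-lactamase reporter cells (50,000/well) treated with 11-point 2.5-fold compound dilutions and stimulated with 0.15 mg/ml poly IC-LMW for 16 hrs. Reporter read by CCF4-AM FRET; EC50 from non-linear fit of percent inhibition, reported as pEC50 (molar).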

[2] = system: C57/BL6 mice; assay: Inhibition of ConA Induced Hepatitis (plasma ALT); format: in vivo; details: Mus musculus; oral, 1 hr before ConA 15 mg/kg i.v.; plasma collected post 8-24 hrs; read-out: ED50 (amount reducing ConA induced increase in plasma ALT level by 50%)
Protocol: Orally administer compound into normal C57/BL6 mice at several doses. After 1 hr, inject i.v. with ConA 15 mg/kg, (N=5). Post 8-24 hrs, collect plasma and liver. Measure plasma ALT enzyme level. An ED50 is determined as the amount of test compound that reduces ConA induced increase in plasma ALT level by 50%.

[3] = target: T2, Full length human TBK1 (Homo sapiens, UniProt Q9UHD2); assay: Inhibition of TBK1 Enzyme (Caliper microfluidic assay); format: biochemical; details: 25 μM ATP, 60 min at RT; -log(IC50), IC50 molar; read-out: TBK1 Inhibition (pIC50) (converted)
T2 construct: Full length human TBK1 with an N-terminal His-tag; His-tag (N); made in house; host or cells: Sf9 insect cells (baculovirus, pFastBac1)
T2 sequence (Q9UHD2 1-729): T1 sequence (Q9UHD2 1-729)
Outline: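 Enzyme: His-tagged full-length TBK1 expressed in Sf9. Reaction 60 min at RT in 20 mM Hepes pH 7.4, 10 mM MgCl2, 1 mM EDTA, 0.01% Brij-L23, 1 mM DTT, with 5FAM-peptide (added at 1 μM) and TBK1/ATP mix (added at 3 nM/25 μM), then EDTA-quenched. Conversion measured by microfluidic separation; 11-point 2.5-fold series fit to pIC50.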

| Compound | EC50 [1] [µM] | ED50 [2] [mg/kg] | IC50 [3] [nM] | melting point [°C] |
| --- | --- | --- | --- | --- |
| O=C(NCC(F)F)c1nc(-c2ccc3nc(NC(=O)C4CC4)cn3c2)cs1 [Example 86, 4-(2-(cyclopropanecarboxamido)imidazo[1,2-a]pyridin-6-yl)-N-(2,2-difluoroethyl)thiazole-2-carboxamide] | 0.537 | 5 | 15.8 |  |
| Cn1nc(-c2ccc3nc(NC(=O)C4CC4)cn3c2)cc1C(=O)NCC(F)(F)F [Example 1, 3-(2-(cyclopropanecarboxamido)imidazo[1,2-a]pyridin-6-yl)-1-methyl-N-(2,2,2-trifluoroethyl)-1H-pyrazole-5-carboxamide] | 8.32 |  | 251 | 251 to 255 |
